Laboratory results as given in US20100105730A1 (H. Lundbeck A/S, priority 2007, published 2010).
Like-named read-outs stand apart in the source and are kept apart here.

What was measured:
[1] = biological target: T1, SERT (Rattus norvegicus, UniProt P31652); assay: Serotonin (5-HT) reuptake inhibition, rat cortical synaptosomes; assay type: biochemical; settings: rat cortical synaptosome preparation
T1 construct: rat cortical synaptosome preparation; from tissue; host or cells: rat cortical synaptosomes
T1 sequence (P31652 whole entry): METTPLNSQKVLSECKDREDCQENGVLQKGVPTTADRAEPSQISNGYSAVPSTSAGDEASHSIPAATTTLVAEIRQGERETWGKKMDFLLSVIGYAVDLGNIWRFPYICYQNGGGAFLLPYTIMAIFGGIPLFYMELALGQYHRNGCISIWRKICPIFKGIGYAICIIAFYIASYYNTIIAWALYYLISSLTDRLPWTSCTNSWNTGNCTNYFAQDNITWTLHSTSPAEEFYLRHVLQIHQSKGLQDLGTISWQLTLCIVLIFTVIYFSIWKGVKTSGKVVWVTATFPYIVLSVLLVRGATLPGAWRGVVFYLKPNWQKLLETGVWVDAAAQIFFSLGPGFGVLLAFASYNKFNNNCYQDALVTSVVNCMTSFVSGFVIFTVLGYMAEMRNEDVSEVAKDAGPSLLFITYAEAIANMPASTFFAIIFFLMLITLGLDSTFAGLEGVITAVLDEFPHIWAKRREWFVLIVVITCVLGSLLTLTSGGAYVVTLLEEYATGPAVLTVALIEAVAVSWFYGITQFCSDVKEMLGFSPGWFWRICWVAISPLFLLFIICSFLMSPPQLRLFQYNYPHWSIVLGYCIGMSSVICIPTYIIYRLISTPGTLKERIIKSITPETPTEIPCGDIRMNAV
Procedure: (§1) Non-specific uptake was determined in the presence of 10 μM talsupram or citalopram and the total uptake was determined in the presence of buffer. Aliquots were incubated for 15 minutes at 37° C. […] Filters were washed and counted in a Wallac MicroBeta counter.

[2] = biological target: T2, NET (Rattus norvegicus, UniProt Q63380); assay: Norepinephrine (NE) reuptake inhibition, rat cortical synaptosomes; assay type: biochemical; settings: rat cortical synaptosome preparation; read-out: IC50 at NET ([3H]NE uptake)
T2 construct: rat cortical synaptosome preparation; from tissue; host or cells: rat cortical synaptosomes
T2 sequence (Q63380 1-617): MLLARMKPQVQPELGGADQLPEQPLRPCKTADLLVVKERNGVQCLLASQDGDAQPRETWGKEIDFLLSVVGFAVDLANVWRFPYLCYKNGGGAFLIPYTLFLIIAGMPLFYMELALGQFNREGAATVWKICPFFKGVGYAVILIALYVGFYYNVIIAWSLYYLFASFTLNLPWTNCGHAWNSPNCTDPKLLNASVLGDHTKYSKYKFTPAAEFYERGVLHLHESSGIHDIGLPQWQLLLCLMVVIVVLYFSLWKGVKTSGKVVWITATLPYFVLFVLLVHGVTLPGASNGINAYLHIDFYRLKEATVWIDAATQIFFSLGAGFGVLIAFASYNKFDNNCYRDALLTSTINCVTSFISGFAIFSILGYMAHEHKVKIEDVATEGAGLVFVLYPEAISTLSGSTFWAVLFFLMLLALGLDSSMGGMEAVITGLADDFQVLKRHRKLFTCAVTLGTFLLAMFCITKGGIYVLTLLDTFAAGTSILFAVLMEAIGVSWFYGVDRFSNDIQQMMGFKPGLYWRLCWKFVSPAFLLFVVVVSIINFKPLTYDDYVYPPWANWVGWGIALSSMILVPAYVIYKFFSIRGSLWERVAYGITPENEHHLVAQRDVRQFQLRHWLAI
Procedure: as §1

[3] = biological target: T3, human-homomeric 5-HT3A receptors (Homo sapiens, UniProt P46098); assay: Electrophysiology in oocytes expressing human-homomeric 5-HT3A receptors; assay type: cell-based
T3 sequence (P46098 24-478): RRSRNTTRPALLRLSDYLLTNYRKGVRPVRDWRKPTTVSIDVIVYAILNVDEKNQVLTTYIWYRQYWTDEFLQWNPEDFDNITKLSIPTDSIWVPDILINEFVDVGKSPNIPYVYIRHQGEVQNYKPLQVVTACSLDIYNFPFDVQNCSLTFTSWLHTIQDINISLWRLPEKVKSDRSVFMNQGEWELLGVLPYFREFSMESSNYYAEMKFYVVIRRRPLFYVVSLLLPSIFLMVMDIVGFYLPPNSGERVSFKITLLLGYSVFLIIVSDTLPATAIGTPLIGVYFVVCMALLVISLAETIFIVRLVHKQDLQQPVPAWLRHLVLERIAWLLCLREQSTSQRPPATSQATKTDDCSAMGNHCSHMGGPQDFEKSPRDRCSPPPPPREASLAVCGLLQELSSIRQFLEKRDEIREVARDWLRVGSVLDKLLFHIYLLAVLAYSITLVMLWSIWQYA
Procedure: The experiments were carried out as follows. […] Oocytes avoid of the follicle layer were selected and incubated for 24 hours in Modified Barth's Saline buffer [88 mM NaCl, 1 mM KCl, 15 mM HEPES, 2.4 mM NaHCO3, 0.41 mM CaCl2, 0.82 mM MgSO4, 0.3 mM Ca(NO3)2] supplemented with 2 mM sodium pyruvate, 0.1 U/l penicillin and 0.1 μg/l streptomycin. Stage […] oocytes were identified and injected with 12-48 nl of nuclease free water containing 14-50 pg of cRNA coding for human 5-HT3A receptors receptors and incubated at 18° C. until they were used for electrophysiological recordings (1-7 days after injection). […] Cells were impaled with agar plugged 0.5-1 MΩ electrodes containing 3 M KCl and voltage clamped at −90 mV by a GeneClamp 500B amplifier. The oocytes were continuously perfused with Ringer buffer and the drugs were applied in the perfusate.

[4] = biological target: T4, α1A receptor (Homo sapiens, UniProt P35348); assay: α1A receptor affinity, [3H]-Prazosin binding to membranes; settings: Ki by Cheng Prusoff, read-out: Ki, affinity for α1A receptors
T4 sequence (P35348 1-466): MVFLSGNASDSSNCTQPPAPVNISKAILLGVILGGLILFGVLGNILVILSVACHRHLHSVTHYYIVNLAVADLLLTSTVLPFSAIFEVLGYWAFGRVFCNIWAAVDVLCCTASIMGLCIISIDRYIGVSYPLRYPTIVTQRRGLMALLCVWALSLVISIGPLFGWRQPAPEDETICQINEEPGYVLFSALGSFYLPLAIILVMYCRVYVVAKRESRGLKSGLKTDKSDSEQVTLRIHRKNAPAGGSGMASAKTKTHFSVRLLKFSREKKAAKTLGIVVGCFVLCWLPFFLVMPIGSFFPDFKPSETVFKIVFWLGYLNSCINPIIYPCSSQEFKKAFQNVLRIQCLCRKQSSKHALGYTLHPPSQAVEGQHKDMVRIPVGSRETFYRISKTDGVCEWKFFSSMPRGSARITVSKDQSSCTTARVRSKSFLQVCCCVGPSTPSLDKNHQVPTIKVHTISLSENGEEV
Procedure: On the day of the experiments membranes (see below for description of membrane preparation) are thawed and homogenized in buffer using an ultra turrax and diluted to the desired concentration (5 μg/well˜5/900 μl, store on ice until use). The experiment is initiated by mixing of 50 μl test compound, 50 μl [^3H]-Prazosin and […], and the mixture is incubated for 20 minutes at 25° C. Non-specific binding is determined in the presence of 10 μM WB-4101 and the total binding is determined in the presence of buffer. After the incubation, bound ligand is separated from unbound by filtration through Unifilter GF/B, presoaked in 0.1% PEI for 30 minutes, using a Tomtec Cell Harvester program (D4.2..4). 96 well. Filters are washed 3 times with 1 ml ice-cold buffer, dried at 50° C. and 35 μl scintillation liquid/well is added to the filters. Bound radioactivity is counted in a Wallac OY 1450 MicroBeta. […] Concentrations of compound covering 2 decades were used to calculate the IC50 value.

[5] = tested on: extracellular levels of acetylcholine in the prefrontal cortex and ventral hippocampus; assay: Microdialysis, extracellular acetylcholine levels in freely-moving rats; assay type: in vivo, rat; settings: FIGS. 1a and 1b
Procedure: Male Sprague-Dawley rats, initially weighing 275-300 g, were used. The animals were housed under a 12-hr light/dark cycle under controlled conditions for regular in-door temperature (21±2° C.) and humidity (55±5%) with food and tap water available ad libitum.
Rats were anaesthetised with hypnorm/dormicum (2 ml/kg) and intracerebral guide cannulas (CMA/12) were stereotaxically implanted into the hippocampus, aiming to position the dialysis probe tip in the ventral hippocampus (co-ordinates: 5.6 mm posterior to bregma, lateral—5.0 mm, 7.0 mm ventral to dura or in the frontal cortex (co-ordinates: 3.2 mm anterior to bregma; lateral, 0.8 mm; 4.0 mm ventral to dura). Anchor screws and acrylic cement were used for fixation of the guide cannulas. The body temperature of the animals was monitored by rectal probe and maintained at 37° C. The rats were allowed to recover from surgery for 2 days, housed singly in cages. […]
Concentration of acetylcholine (ACh) in the dialysates was analysed by means of HPLC with electrochemical detection using a mobile phase consisting of 100 mM disodium hydrogenphosphate, 2.0 mM octane sulfonic acid, 0.5 mM tetramethylammonium chloride and 0.005% MB (ESA), pH 8.0. […] The latter was detected electrochemical by using a platinum electrode (Analytical cell: ESA, model 5040). […]

[6] = tested on: extracellular dopamine (DA) levels in the rat frontal cortex; assay: Microdialysis, extracellular dopamine levels in rat frontal cortex; assay type: in vivo; settings: single injection
Procedure: Male Sprague-Dawley rats, initially weighing 275-300 g, were used. The animals were housed under a 12-hr light/dark cycle under controlled conditions for regular in-door temperature (21±2° C.) and humidity (55±5%) with food and tap water available ad libitum. For the three-day treatment experiments osmotic minipumps (Alzet, 2ML1) were used. The pumps were filled under aseptic conditions and implanted subcutaneously under sevoflurance anaesthesia. The experiments were carried out with the minipumps on board. Blood samples for measuring plasma levels of the test compound after 3 days of treatment were collected at the end of the experiments. Animals were anaesthetised with hypnorm/dormicum (2 ml/kg) and intracerebral guide cannulas (CMA/12) were stereotaxically implanted into the hippocampus, positioning the dialysis probe tip in the ventral hippocampus (co-ordinates: 5.6 mm […] to bregma, lateral—5.0 mm, 7.0 mm ventral to dura or in the frontal cortex (co-ordinates: 3.2 mm anterior to bregma; lateral, 3.0 mm; 4.0 mm ventral to dura). Anchor screws and acrylic cement were sued for fixation of the guide cannulas. The body temperature of the animals was monitored by rectal probe and maintained at 37° C. The rats were allowed to recover from surgery for 2 days, housed singly in cages. […]

[7] = tested on: formalin model of neuropathic pain; assay: Formalin model of neuropathic pain in mice; assay type: in vivo, C57/B6 mice
Procedure: The irritation caused by the formalin injection elicits a characteristic biphasic behavioural response, as quantified by the amount of time spent licking the injured paw. The first phase (—O—10 minutes) represents direct chemical irritation and nociception, whereas the second (−20-30 minutes) is thought to represent pain of neuropathic origin. The two phases are separated by a quiescent period in which behaviour returns to normal. Measuring the amount of time spent licking the injured paw in the two phases assesses the effectiveness of test compounds to reduce the painful stimuli. Eight C57/B6 mice (ca. 25 g) were tested per group. […] The amount of compound administered is calculated as the free base.

[8] = biological target: T5, 5-HT2A receptors (Homo sapiens, UniProt P28223); assay: 5-HT2A receptor affinity (MDL Pharmaservices catalogue number 271650); assay type: binding; parameters: purchased MDL Pharmaservices 271650
T5 sequence (P28223 whole entry): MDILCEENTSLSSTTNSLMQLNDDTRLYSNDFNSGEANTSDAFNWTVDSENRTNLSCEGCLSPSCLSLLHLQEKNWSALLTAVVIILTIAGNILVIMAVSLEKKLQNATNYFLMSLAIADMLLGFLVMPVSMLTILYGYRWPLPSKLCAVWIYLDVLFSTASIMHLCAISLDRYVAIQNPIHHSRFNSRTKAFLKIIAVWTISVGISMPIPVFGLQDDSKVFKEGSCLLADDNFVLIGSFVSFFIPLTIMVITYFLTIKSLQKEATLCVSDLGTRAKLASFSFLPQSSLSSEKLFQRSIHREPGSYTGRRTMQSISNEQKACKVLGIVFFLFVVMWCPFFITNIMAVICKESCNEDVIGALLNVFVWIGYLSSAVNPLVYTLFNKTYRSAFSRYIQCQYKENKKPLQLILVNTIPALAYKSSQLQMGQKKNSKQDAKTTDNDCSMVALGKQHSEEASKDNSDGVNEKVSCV

[9] = biological target: T5, 5-HT2A receptors; assay: Binding to human 5-HT2A receptors expressed in mammalian cells; parameters: expressed in transfected cells; host or cells: CHO cells; settings: mammalian cells expressing human 5-HT2A receptors
[10] = biological target: T5, 5-HT2A receptors; assay: Antagonism of 5-HT evoked Ca2+ release in CHO cells expressing human 5-HT2A receptors (FLIPR); assay type: cell-based; parameters: expressed in transfected cells; host or cells: CHO cells
Procedure: The experiment was carried out as follows. 2 or 3 days before the experiment CHO cells expressing 250 fmol/mg human 5-HT2A receptors are plated at a density sufficient to yield a mono-confluent layer on the day of the experiment. The cells are dye loaded (Ca^2+-kit from Molecular Devices) for 60 minutes at 37° C. in a 5% CO2 incubator at 95% humidity. Basal fluorescence was monitored in a fluorometric imaging plate reader or FLIPR^384 from Molecular Devices (Sunnyvale, Calif.) with an excitation wavelength of 488 nm and an emission range of 500 to 560 nm. […] The variation in basal fluorescence should be less than 10%. […] IC; values were calculated using Cheng-Prusoff equation.

Cc1ccc(Sc2ccccc2C2CCNCC2)cc1 [compound I, 4-[2-(4-methylphenylsulfanyl)phenyl]piperidine]
IC50 [1]: 8 nM
IC50 [2]: 23 nM
Kb ([3]; 0.1 nM-100 nM, read-out: Kb, antagonism in low concentrations): ~2 nM
EC50 ([3]; 100-100000 nM, read-out: EC50, agonistic properties in higher concentrations): ~2600 nM
maximal current, % of the maximal current elicited by 5-HT itself ([3]; agonism at higher concentrations (100-100000 nM)): 70-80%
IC50 ([3]; read-out: IC50, antagonism in low concentrations): ~10 nM
Ki [4]: 34 nM
extra-cellular acetylcholine levels in the brain [5]: dose dependent increase
enhancement of DA levels above baseline levels ([6]; 8.9 mg/kg s.c.): approximately 100%
enhancement of DA levels above baseline levels ([6]; 18 mg/kg s.c.): ~150%
time spent licking the injured paw, 0-5 minutes ([7]; 1.0 mg/kg, first phase): 37 s
time spent licking the injured paw, 20-30 minutes ([7]; 1.0 mg/kg, second phase): 43 s
time spent licking the injured paw, 0-5 minutes ([7]; 10 mg/kg, first phase): 37 s
effect in the first phase (direct chemical irritation and nociception) ([7]; first phase, in words): little effect
time spent licking paws in the second phase ([7]; second phase, in words): clear and dose dependent decrease
Ki [8]: 54 nM
Ki [9]: < 100 nM
Kb ([10]; Kb, antagonism of 5-HT evoked release of Ca2+ from intracellular stores, functional assay): 67 nM
Kb ([10]; schild analysis, read-out: Kb, schild analysis (competitive antagonism)): 100 nM
